Measurements taken from patent US20170042151A1, “SAFENED HERBICIDAL COMPOSITIONS COMPRISING PYRIDINE CARBOXYLIC ACIDS” (Dow AgroSciences LLC, priority 2015, published 2017).

How the values were obtained:
Format in all cases: in vivo
[1] = test system: TRZAW = Triticum aestivum (winter wheat); assay: Greenhouse post-emergence phytotoxicity (% visual injury) on wheat
Procedure: (§1) In addition, the efficacy of the herbicidal composition on wild mustard (SINAR), wild chamomile (MATCH), wild pansy (VIOTR), shepherd's purse ([…]), pigweed (AMARE), and Canada thistle (CIRAR) was evaluated. […] When required to ensure good germination and healthy plants, a fungicide treatment and/or other chemical or physical treatment was applied. The plants were grown for 7-36 days (d) in a greenhouse with an approximate 14-hour (h) photoperiod which was maintained at about 18° C. during the day and 17° C. during the night. Nutrients and water were added on a regular basis and supplemental lighting was provided with overhead metal halide 1000-Watt lamps as necessary. The plants were employed for testing when they reached the second or third true leaf stage. Weighed amounts of technical material were dissolved in a volume of 97:3 volume per volume (v/v) acetone/dimethyl sulfoxide (DMSO) to stock solutions. […] Stock solutions of the safeners were prepared following the same procedure. […] Control plants were sprayed in the same manner with the solvent blank. The treated plants and control plants were placed in a greenhouse as described above and watered by sub-irrigation to prevent wash-off of the test compounds. […] Colby's equation was used to determine the herbicidal effects expected from the mixtures.

[2] = test system: HORVS = Hordeum vulgare (spring barley); assay: Greenhouse post-emergence phytotoxicity (% visual injury) on spring barley
Procedure: as §1

[3] = test system: SINAR = Sinapis arvensis (wild mustard); assay: Greenhouse post-emergence efficacy (% visual injury) on wild mustard; settings: 20-22 d
Procedure: (§2) The herbicide of formula I-G-A was combined with isoxadifen-ethyl or mefenpyr-diethyl, and applied to spring wheat (TRZAS) and spring barley (HORVS) and the phytotoxicity of the herbicidal composition was measured. In addition, the efficacy of the herbicidal composition on wild mustard (SINAR), wild chamomile (MATCH), wild pansy (VIOTR), shepherd's purse (CAPBP), kochia (KCHSC), lambsquarters (CHEAL), pigweed (AMARE), and Canada thistle (CIRAR) was evaluated. The results for herbicide I-G-A with isoxadifen-ethyl and mefenpyr-diethyl are summarized in Table 7 and Table 8, respectively.
(§3) Seeds of the desired test plant species were planted in Sun Gro MetroMix® 360 planting mixture, which typically has a pH of 6.0 to 6.8 and an organic matter content of about 30 percent, in plastic pots with a surface area of 103.2 square centimeters (cm^2). When required to ensure good germination and healthy plants, a fungicide treatment and/or other chemical or physical treatment was applied. The plants were grown for 7-36 days (d) in a greenhouse with an approximate 14-hour (h) photoperiod which was maintained at about 18° C. during the day and 17° C. during the night. Nutrients and water were added on a regular basis and supplemental lighting was provided with overhead metal halide 1000-Watt lamps as necessary. The plants were employed for testing when they reached the second or third true leaf stage.
(§4) Weighed amounts of technical material were dissolved in a volume of 97:3 volume per volume (v/v) acetone/dimethyl sulfoxide (DMSO) to stock solutions. […] Compound requirements are based upon a 12 milliliter (mL) application volume at a rate of 187 liters per hectare (L/ha). Stock solutions of the safeners were prepared following the same procedure. Spray solutions of the safeners and experimental compound mixtures were prepared by adding the stock solutions to the appropriate amount of dilution solution to form a 12 mL spray solution in two-way combinations. Formulated compounds were applied to the plant material with an overhead Mandel track sprayer equipped with 8002E nozzles calibrated to deliver 187 L/ha over an application area of 0.503 square meters (m^2) at a spray height of 18 inches (43 centimeters (cm)) above average plant canopy. Control plants were sprayed in the same manner with the solvent blank.
(§5) The treated plants and control plants were placed in a greenhouse as described above and watered by sub-irrigation to prevent wash-off of the test compounds. After 20-22 d, the condition of the test plants as compared with that of the control plants was determined visually and scored on a scale of 0 to 100 percent where 0 corresponds to no injury and 100 corresponds to complete kill. Colby's equation was used to determine the herbicidal effects expected from the mixtures.

[4] = test system: MATCH = Matricaria recutita (wild chamomile); assay: Greenhouse post-emergence efficacy (% visual injury) on wild chamomile; settings: 20-22 d
Procedure: as §2, §3, §4, §5

[5] = test system: VIOTR = Viola tricolor (wild pansy); assay: Greenhouse post-emergence efficacy (% visual injury) on wild pansy; settings: 20-22 d
Procedure: as §2, §3, §4, §5

[6] = test system: CAPBP = Capsella bursa-pastoris (shepherd's purse); assay: Greenhouse post-emergence efficacy (% visual injury) on shepherd's purse; settings: 20-22 d
Procedure: as §2, §3, §4, §5

[7] = test system: KCHSC = Kochia scoparia (kochia); assay: Greenhouse post-emergence efficacy (% visual injury) on kochia; settings: 20-22 d
Procedure: as §2, §3, §4, §5

[8] = test system: CHEAL = Chenopodium album (lambsquarters); assay: Greenhouse post-emergence efficacy (% visual injury) on lambsquarters; settings: 20-22 d
Procedure: as §2, §3, §4, §5

[9] = test system: AMARE = Amaranthus retroflexus (pigweed); assay: Greenhouse post-emergence efficacy (% visual injury) on pigweed; settings: 20-22 d
Procedure: as §2, §3, §4, §5

[10] = test system: CIRAR = Cirsium arvense (Canada thistle); assay: Greenhouse post-emergence efficacy (% visual injury) on Canada thistle; settings: 20-22 d
Procedure: as §2, §3, §4, §5

[11] = safener 20 g ai/ha alone, 20-22 d
[12] = safener 40 g ai/ha alone, 20-22 d
[13] = safener 80 g ai/ha alone, 20-22 d
[14] = herbicide 20 g ae/ha alone, 20-22 d

With `CC1COc2ccccc2N1C(=O)C(Cl)Cl` (racemic) [benoxacor, (±)-4-(dichloroacetyl)-3,4-dihydro-3-methyl-2H-1,4-benzoxazine] the “Effect (% visual injury) TRZAW Obs” value ([1]; in vivo) was 0% and the “Effect (% visual injury) HORVS Obs” value ([2]; in vivo) was 0%.

For `CCOC(=O)C1=NN(c2ccc(Cl)cc2Cl)C(C)(C(=O)OCC)C1` (racemic) [mefenpyr-diethyl, (RS)-1-(2,4-dichlorophenyl)-5-methyl-2-pyrazoline-3,5-dicarboxylate], the “Effect (% visual injury) TRZAW Obs” value [1, 11] was 0%, the “Effect (% visual injury) TRZAW Obs” value [1, 12] was 0% and the “Effect (% visual injury) TRZAW Obs” value [1, 13] was 0%. For the same compound, the “Effect (% visual injury) HORVS Obs” value [2, 11] was 0%, the “Effect (% visual injury) HORVS Obs” value [2, 12] was 0% and the “Effect (% visual injury) HORVS Obs” value [2, 13] was 0%. The “Effect (% visual injury) SINAR Obs” value ([3]; safener 20 g ai/ha alone) was 0%, the “Effect (% visual injury) SINAR Obs” value ([3]; safener 40 g ai/ha alone) was 0% and the “Effect (% visual injury) SINAR Obs” value ([3]; safener 80 g ai/ha alone) was 0%. For the same compound, the “Effect (% visual injury) MATCH Obs” value ([4]; safener 20 g ai/ha alone) was 0%, the “Effect (% visual injury) MATCH Obs” value ([4]; safener 40 g ai/ha alone) was 0% and the “Effect (% visual injury) MATCH Obs” value ([4]; safener 80 g ai/ha alone) was 0%. The “Effect (% visual injury) VIOTR Obs” value ([5]; safener 20 g ai/ha alone) was 0%, the “Effect (% visual injury) VIOTR Obs” value ([5]; safener 40 g ai/ha alone) was 0% and the “Effect (% visual injury) VIOTR Obs” value ([5]; safener 80 g ai/ha alone) was 0%. The “Effect (% visual injury) CAPBP Obs” value ([6]; safener 20 g ai/ha alone) was 0%, the “Effect (% visual injury) CAPBP Obs” value ([6]; safener 40 g ai/ha alone) was 0% and the “Effect (% visual injury) CAPBP Obs” value ([6]; safener 80 g ai/ha alone) was 0%. For the same compound, the “Effect (% visual injury) KCHSC Obs” value ([7]; safener 20 g ai/ha alone) was 0%, the “Effect (% visual injury) KCHSC Obs” value ([7]; safener 40 g ai/ha alone) was 0% and the “Effect (% visual injury) KCHSC Obs” value ([7]; safener 80 g ai/ha alone) was 0%. For the same compound, the “Effect (% visual injury) CHEAL Obs” value ([8]; safener 20 g ai/ha alone) was 0%, the “Effect (% visual injury) CHEAL Obs” value ([8]; safener 40 g ai/ha alone) was 0% and the “Effect (% visual injury) CHEAL Obs” value ([8]; safener 80 g ai/ha alone) was 0%. For the same compound, the “Effect (% visual injury) AMARE Obs” value ([9]; safener 20 g ai/ha alone) was 0%, the “Effect (% visual injury) AMARE Obs” value ([9]; safener 40 g ai/ha alone) was 0% and the “Effect (% visual injury) AMARE Obs” value ([9]; safener 80 g ai/ha alone) was 0%. For the same compound, the “Effect (% visual injury) CIRAR Obs” value ([10]; safener 20 g ai/ha alone) was 0%, the “Effect (% visual injury) CIRAR Obs” value ([10]; safener 40 g ai/ha alone) was 0% and the “Effect (% visual injury) CIRAR Obs” value ([10]; safener 80 g ai/ha alone) was 0%.

`NC(=O)NS(=O)(=O)c1ccccc1Cl` [2-CBSU, N-(aminocarbonyl)-2-chlorobenzenesulfonamide] was tested, and the “Effect (% visual injury) TRZAW Obs” value ([1]; in vivo) was 0% and the “Effect (% visual injury) HORVS Obs” value ([2]; in vivo) was 0%.

In the case of `CCc1nc(C(=O)O)c(Cl)c(N)c1F` [I-G-A], the “Effect (% visual injury) TRZAW Obs” value [1, 14] is reported as 25%, the “Effect (% visual injury) HORVS Obs” value [2, 14] is reported as 13% and the “Effect (% visual injury) SINAR Obs” value ([3]; herbicide 20 g ae/ha alone) is reported as 97%. For the same compound, the “Effect (% visual injury) MATCH Obs” value ([4]; herbicide 20 g ae/ha alone) was 80%, the “Effect (% visual injury) VIOTR Obs” value ([5]; herbicide 20 g ae/ha alone) was 60% and the “Effect (% visual injury) CAPBP Obs” value ([6]; herbicide 20 g ae/ha alone) was 100%. For the same compound, the “Effect (% visual injury) KCHSC Obs” value ([7]; herbicide 20 g ae/ha alone) was 20%, the “Effect (% visual injury) CHEAL Obs” value ([8]; herbicide 20 g ae/ha alone) was 95% and the “Effect (% visual injury) AMARE Obs” value ([9]; herbicide 20 g ae/ha alone) was 20%. The “Effect (% visual injury) CIRAR Obs” value ([10]; herbicide 20 g ae/ha alone) was 80%.

With `C=CCN(CC=C)C(=O)C(Cl)Cl` [dichlormid, N,N-diallyl-2,2-dichloroacetamide] the “Effect (% visual injury) TRZAW Obs” value [1, 11] was 0%, the “Effect (% visual injury) TRZAW Obs” value [1, 12] was 0% and the “Effect (% visual injury) TRZAW Obs” value [1, 13] was 0%. For the same compound, the “Effect (% visual injury) HORVS Obs” value [2, 11] was 0%, the “Effect (% visual injury) HORVS Obs” value [2, 12] was 0% and the “Effect (% visual injury) HORVS Obs” value [2, 13] was 0%.

With `O=C(O)c1nc(C(Cl)(Cl)Cl)n(-c2ccc(Cl)cc2Cl)n1` [fenchlorazole, 1-(2,4-dichlorophenyl)-5-(trichloromethyl)-1H-1,2,4-triazole-3-carboxylic acid] the “Effect (% visual injury) TRZAW Obs” value [1, 11] was 0%, the “Effect (% visual injury) TRZAW Obs” value [1, 12] was 0% and the “Effect (% visual injury) TRZAW Obs” value [1, 13] was 0%. The “Effect (% visual injury) HORVS Obs” value [2, 11] was 0%, the “Effect (% visual injury) HORVS Obs” value [2, 12] was 0% and the “Effect (% visual injury) HORVS Obs” value [2, 13] was 0%.

With `Clc1cc(Cl)nc(-c2ccccc2)n1` [fenclorim, 4,6-dichloro-2-phenylpyrimidine] the “Effect (% visual injury) TRZAW Obs” value ([1]; in vivo) was 0% and the “Effect (% visual injury) HORVS Obs” value ([2]; in vivo) was 0%.

With `O=C1OC(=O)c2cccc3cccc1c23` [naphthalic anhydride] the “Effect (% visual injury) TRZAW Obs” value ([1]; in vivo) was 0% and the “Effect (% visual injury) HORVS Obs” value ([2]; in vivo) was 0%.
